5 molecules from ChEMBL document CHEMBL1148500, “Inhibitory activity of cyclohexenyl chalcone derivatives and flavonoids of fingerroot, Boesenbergia rotunda (L.), towards dengue-2 virus NS3 protease” (Bioorg Med Chem Lett, 2006) can be followed below.

Assay [1] deals with Genome polyprotein (dengue virus type 2) (UniProt P29990). Put plainly: Inhibition of dengue2 virus NS2B/NS3 protease activity for Boc-Gly-Arg-Arg-MCA cleavage at 120 ppm.
For assay [2] the target is unchanged. Nature of the assay: Inhibition of dengue2 virus NS2B/NS3 protease activity for Boc-Gly-Arg-Arg-MCA cleavage at 240 ppm.
Assay [3] shares this target. Put plainly: Inhibition of dengue2 virus NS2B/NS3 protease activity for Boc-Gly-Arg-Arg-MCA cleavage at 400 ppm.
Assay [4] shares this target. Nature of the assay: Inhibition of dengue2 virus NS2B/NS3 protease activity for Boc-Gly-Arg-Arg-MCA cleavage at 40 ppm.
The target is the same in assay [5]. Nature of the assay: Inhibition of dengue2 virus NS2B/NS3 protease activity for Boc-Gly-Arg-Arg-MCA cleavage at 80 ppm.
Assay [6] shares this target. Put plainly: Inhibition of dengue2 virus NS2B/NS3 protease activity for Boc-Gly-Arg-Arg-MCA cleavage at 160 ppm.
Assay [7] has the same target. Put plainly: Inhibition of dengue2 virus NS2B/NS3 protease activity for Ac-Thr-Arg-Arg-MCA cleavage at 120 ppm.
The target is the same in assay [8]. Put plainly: Inhibition of dengue2 virus NS2B/NS3 protease activity for Ac-Thr-Arg-Arg-MCA cleavage at 240 ppm.
For assay [9] the target is unchanged. Put plainly: Inhibition of dengue2 virus NS2B/NS3 protease activity for Ac-Thr-Arg-Arg-MCA cleavage at 400 ppm.
Assay [10] deals with Genome polyprotein (dengue virus type 2, UniProt P29990). Nature of the assay: Inhibition of dengue2 virus NS3 protease.

One may read the inhibition as the relative decrease from the control value, in per cent. As to `O=C1C[C@@H](c2ccccc2)Oc2cc(O)cc(O)c21`, the results for the inhibition in [1], in [2] and in assay [3] were 30.1%, 47.3% and 56.1%, respectively.

The term Ki denotes a measure of affinity in units of concentration, obtained from inhibition or displacement. Read a high Ki as a looser hold on the target. Regarding `CC(C)=CC[C@@H]1C(C)=CC[C@@H](c2ccccc2)[C@@H]1C(=O)c1c(O)cc(O)cc1O` [4-HYDROXYPANDURATIN A], the inhibition in [4] was 52%; in [5], 78.1%; in assay [1] it was 87.6%; in [6], 96%; in assay [2], 97.3%; in assay [3], 99.8%. Besides, the inhibition in [7] was 90.4%; in [8], 96.1%; in [9], 99.2%. The molecule further had an inhibition constant Ki in [10] of 21 µM.

Turning to `COc1cc(O)cc(O)c1C(=O)/C=C/c1ccccc1` [CARDAMOMIN], the results for the inhibition in assay [1], in assay [2] and in assay [3] were 39.4%, 50.1% and 71.3%, respectively. Affinity in assay [10] was put at a Ki of 377 µM.

Regarding `COc1cc(O)c(C(=O)[C@@H]2[C@H](CC=C(C)C)C(C)=CC[C@H]2c2ccccc2)c(O)c1` [PANDURATIN A], the inhibition is 27.1% in [4]; 66.7% in assay [5]; 87.7% in [1]; 93.7% in assay [6]; 92.2% in [2]; 99.8% in [3]. The inhibition was 47.5% in assay [7], 59.6% in assay [8] and 90.4% in assay [9]. Moreover, the Ki in assay [10] worked out at 25 µM.

On to `COc1cc(O)c2c(c1)O[C@H](c1ccccc1)CC2=O` [PINOSTROBIN], for which the inhibition in assay [7] was determined as 76.7%; in [8] it was 80.7%; in assay [9], 88.7%. In addition, in assay [10], the affinity, expressed as Ki, was 345 µM.
